Several values for one entry are separate records, joined by “and”; a condition that tells them apart may be missing. Equal entries are not always repeated. Where two headings read alike, the source gives them in different places.
Experiments:
[1] = test system: Rat2 fibroblasts stably transformed with v-Src/Hu c-Src fusion gene; experiment: Anchorage independent Src-transformed fibroblast proliferation assay; assay type: cell-based, rat; settings: for IC50: read-out: Src Cells IC50 μM or % inhib at 10 μM (IC50 values)
Experimental: Anchorage Independent Src-Transformed Fibroblast Proliferation Assay Rat2 fibroblasts stably transformed with a plasmid containing a CMV promotor controlled v-Src/Hu c-Src fusion gene in which the catalytic domain of human c-Src was inserted in place of the v-Src catalytic domain in the v-Src gene are used for the measurement of src dependent suspension growth. […] Multiple entries for a given compound indicate that it was tested multiple times.

[2] = molecular target: T1, Rat2 fibroblasts stably transformed with v-Src/Hu Lck fusion gene (Homo sapiens, UniProt P06239, cells depend on it, form not given); experiment: Anchorage independent Lck-transformed fibroblast proliferation assay; assay type: cell-based, rat
T1 construct: Candidates are e.g. Schmidt-Ruppin A (P00524) or Prague C (P00526); The human Lck catalytic domain stands in place of the v-Src catalytic domain
Experimental: Anchorage Independent Lck-Transformed Fibroblast Proliferation Assay
Rat2 fibroblasts stably transformed with a plasmid containing a CMV promotor controlled v-Src/Hu Lck fusion gene in which the catalytic domain of human Lck was inserted in place of the v-Src catalytic domain in the v-Src gene are used for the measurement of src dependent suspension growth. Ultra-low cluster plates (Costar # 3474) are seeded with 10,000 cells per well on Day 1. Compound is added in serial two-fold dilutions from 10 micromolar to 0.009 micromolar on Day 2 and MTS reagent (Promega) is added on Day 5 (100 microliters of MTS/medium mix+100 microliters of medium already on the cells and the absorbance is measured at 490 nm. The results are analyzed as follows to yield an IC50 for proliferation (micromolar units) as follow: % inhibition=(Abs490 nm sample−blank)/(Abs490 nm no cmpd control−blank)×100%. The results obtained for representative compounds of this invention are listed in Table 2. Multiple entries for a given compound indicate that it was tested multiple times.

[3] = Table 3, read-out: Lck Cells IC50
[4] = Rattus norvegicus, Rat2, Table 3
[5] = Table 2, suspension growth, MTS readout Day 5, read-out: Lck cells IC50

T1 sequence (P06239 whole entry, change not shown, the tested form may be a part): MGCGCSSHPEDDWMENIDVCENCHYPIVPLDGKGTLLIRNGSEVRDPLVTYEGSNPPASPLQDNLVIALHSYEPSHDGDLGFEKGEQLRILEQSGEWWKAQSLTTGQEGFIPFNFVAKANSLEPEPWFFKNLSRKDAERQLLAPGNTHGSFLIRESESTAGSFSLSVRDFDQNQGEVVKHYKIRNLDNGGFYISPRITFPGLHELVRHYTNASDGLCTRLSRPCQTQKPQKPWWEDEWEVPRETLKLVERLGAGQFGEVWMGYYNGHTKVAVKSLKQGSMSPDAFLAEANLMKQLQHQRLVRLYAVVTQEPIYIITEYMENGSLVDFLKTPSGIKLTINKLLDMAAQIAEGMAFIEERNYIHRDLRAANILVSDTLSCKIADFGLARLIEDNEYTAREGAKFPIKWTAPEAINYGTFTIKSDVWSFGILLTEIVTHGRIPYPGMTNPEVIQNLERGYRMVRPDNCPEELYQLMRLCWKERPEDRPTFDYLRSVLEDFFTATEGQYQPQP

GI50 [2, 3] | melting point [°C] | Compound | IC50 ([1]; Table 3) | IC50 [1, 4] [µM] | other results
> 10000 nM |  | COc1cc(Nc2c(C#N)cnc3cc(C#Cc4cnn(CCN5CCOCC5)c4)sc23)c(Cl)cc1Cl [Example 65, 7-[(2,4-Dichloro-5-methoxyphenyl)amino]-2-{[1-(2-morpholin-4-ylethyl)-1H-pyrazol-4-yl]ethynyl}thieno[3,2-b]pyridine-6-carbonitrile] |  | 0.7 | 
1500 nM and 1700 nM |  | COc1cc(Nc2c(C#N)cnc3cc(-c4ccc(C=O)o4)sc23)c(Cl)cc1Cl [Example 67, 7-[(2,4-dichloro-5-methoxyphenyl)amino]-2-(5-formyl-2-furyl)thieno[3,2-b]pyridine-6-carbonitrile] |  | 3.7 | 
 | 244 to 245 | COc1cc(Nc2c(C#N)cnc3cc(-c4ccc(CN5CCOCC5)cc4)sc23)c(Cl)cc1Cl [Example 15, 7-[(2,4-Dichloro-5-methoxyphenyl)amino]-2-[4-(4-morpholinylmethyl)phenyl]thieno[3,2-b]pyridine-6-carbonitrile] |  |  | GI50 [2, 5]: 350 nM
500 nM |  | COc1cc(Nc2c(C#N)cnc3cc(-c4ccc(CN(C)CCCN(C)C)cc4)sc23)c(Cl)cc1Cl [Example 85, 7-[(2,4-dichloro-5-methoxyphenyl)amino]-2-(4-{[[3-(dimethylamino)propyl](methyl)amino]methyl}phenyl)thieno[3,2-b]pyridine-6-carbonitrile] | 3.16 µM | 3.3 | 
180 nM and 220 nM | 200 to 202 | COc1cc(Nc2c(C#N)cnc3cc(-c4ccc(CN5CCN(C)CC5)s4)sc23)c(Cl)cc1Cl [Example 81, 7-[(2,4-dichloro-5-methoxyphenyl)amino]-2-{5-[(4-methylpiperazin-1-yl)methyl]thien-2-yl}thieno[3,2-b]pyridine-6-carbonitrile] |  |  | 
463 nM and 331 nM and 341 nM | 246 to 249 | COc1cc(Nc2c(C#N)cnc3cc(-c4ccc(C(=O)N(C)C)cc4)sc23)c(Cl)cc1Cl [Example 136, 4-{6-cyano-7-[(2,4-dichloro-5-methoxyphenyl)amino]thieno[3,2-b]pyridin-2-yl}-N,N-dimethylbenzamide] |  |  | 
1500 nM and 1600 nM |  | COc1cc(Nc2c(C#N)cnc3cc(-c4ccc(C=O)s4)sc23)c(Cl)cc1Cl [Example 79, 7-[(2,4-dichloro-5-methoxyphenyl)amino]-2-(5-formylthien-2-yl)thieno[3,2-b]pyridine-6-carbonitrile] | 2.8 µM | 2.4 | 
112 nM and 96 nM |  | COc1cc(Nc2c(C#N)cnc3cc(-c4ccc(CN(C)C)cn4)sc23)c(Cl)cc1Cl [Example 132, 7-[(2,4-dichloro-5-methoxyphenyl)amino]-2-{5-[(dimethylamino)methyl]pyridin-2-yl}thieno[3,2-b]pyridine-6-carbonitrile] |  |  | 
938 nM and 804 nM |  | COc1cc(Nc2c(C#N)cnc3cc(C#Cc4cn[nH]c4)sc23)c(Cl)cc1Cl [Example 101, 7-[(2,4-dichloro-5-methoxyphenyl)amino]-2-(1H-pyrazol-4-ylethynyl)thieno[3,2-b]pyridine-6-carbonitrile] | 0.81 µM | 0.804 | 
> 10000 nM | 238 to 240 | COc1cc(Nc2c(C#N)cnc3cc(-c4ccc(CN5CCN(c6ccccc6)CC5)cc4)sc23)c(Cl)cc1Cl [Example 113, 7-[(2,4-dichloro-5-methoxyphenyl)amino]-2-{4-[(4-phenylpiperazin-1-yl)methyl]phenyl}thieno[3,2-b]pyridine-6-carbonitrile] |  |  | 
525 nM and 576 nM and 951 nM | 195 to 197 | COc1cc(Nc2c(C#N)cnc3cc(-c4ccc(CNCCC(C)C)cc4)sc23)c(Cl)cc1Cl [Example 121, 7-[(2,4-dichloro-5-methoxyphenyl)amino]-2-(4-{[(3-methylbutyl)amino]methyl}phenyl)thieno[3,2-b]pyridine-6-carbonitrile] |  |  | 
 | 224 to 225 | COc1cc(Nc2c(C#N)cnc3cc(-c4ccc(CN(C)C)cc4)sc23)c(Cl)cc1Cl [Example 62, 7-[(2,4-Dichloro-5-methoxyphenyl)amino]-2-{4-[(dimethylamino)methyl]phenyl}thieno[3,2-b]pyridine-6-carbonitrile] |  |  | GI50 [2, 5]: 79 nM
> 10000 nM |  | COc1cc(Nc2c(C#N)cnc3cc(C#Cc4cncn4C)sc23)c(Cl)cc1Cl [Example 127, 7-[(2,4-dichloro-5-methoxyphenyl)amino]-2-[(1-methyl-1H-imidazol-5-yl)ethynyl]thieno[3,2-b]pyridine-6-carbonitrile] |  |  | Src Cells IC50 μM or % inhib at 10 μM (% values) ([1]; Table 3, at 10 μM): 0% and 9%
3640 nM and 4070 nM |  | COc1cc(Nc2c(C#N)cnc3cc(C#Cc4cnn(CCO)c4)sc23)c(Cl)cc1Cl [Example 130, 7-[(2,4-dichloro-5-methoxyphenyl)amino]-2-{[1-(2-hydroxyethyl)-1H-pyrazol-4-yl]ethynyl}thieno[3,2-b]pyridine-6-carbonitrile] | 3.2 µM | 5.59 | 
> 10000 nM and 5800 nM |  | COc1cc(Nc2c(C#N)cnc3cc(-c4ccn(CCN(C)C)c4)sc23)c(Cl)cc1Cl [Example 125, 7-[(2,4-dichloro-5-methoxyphenyl)amino]-2-{1-[2-(dimethylamino)ethyl]-1H-pyrrol-3-yl}thieno[3,2-b]pyridine-6-carbonitrile] |  | > 10 | 
1460 nM and 1400 nM |  | COc1cc(Nc2c(C#N)cnc3cc(-c4cn[nH]c4)sc23)c(Cl)cc1Cl [Example 129, 7-[(2,4-dichloro-5-methoxyphenyl)amino]-2-(1 H-pyrazol-4-yl)thieno[3,2-b]pyridine-6-carbonitrile] | 2.19 µM | 3.23 | 
1000 nM and 1850 nM | 190 to 191 | COc1cc(Nc2c(C#N)cnc3cc(C#Cc4cccc(CN(C)C)n4)sc23)c(Cl)cc1Cl [Example 87, 7-[(2,4-dichloro-5-methoxyphenyl)amino]-2-({6-[(dimethylamino)methyl]pyridin-2-yl}ethynyl)thieno[3,2-b]pyridine-6-carbonitrile] |  |  | 
> 10000 nM |  | COc1cc(Nc2c(C#N)cnc3cc(-c4cnn(CCN5CCOCC5)c4)sc23)c(Cl)cc1Cl [Example 131, 7-[(2,4-dichloro-5-methoxyphenyl)amino]-2-[1-(2-morpholin-4-ylethyl)-1H-pyrazol-4-yl]thieno[3,2-b]pyridine-6-carbonitrile] |  |  | inhibition at 10 µM ([1]; Rattus norvegicus, Rat2, Table 3, at 10 μM, read-out: Src Cells IC50 μM or % inhib at 10 μM (% values)): 16%; Src Cells IC50 μM or % inhib at 10 μM (% values) ([1]; Table 3, at 10 μM): 17%

Compound | GI50 [2, 3] | melting point [°C] | IC50 ([1]; Table 3) | IC50 [1, 4] [µM] | other results
7-[(2,4-dichloro-5-methoxyphenyl)amino]-2-{4-[(4-pyrrolidin-1-ylpiperidin-1-yl)methyl]phenyl}thieno[3,2-b]pyridine-6-carbonitrile [Example 71] | 200 nM and 110 nM |  | 1.6 µM and 0.9 µM |  | 
COc1cc(Nc2c(C#N)cnc3cc(-c4ccc(CN5C[C@H](C)NC[C@H]5C)cc4)sc23)c(Cl)cc1Cl [Example 114, 7-[(2,4-dichloro-5-methoxyphenyl)amino]-2-(4{[(2R,5S)-2,5-dimethylpiperazin-1-I]methyl}phenyl)thieno[3,2-b]pyridine-6-carbonitrile] | 156 nM and 174 nM |  |  |  | 
COc1cc(Nc2c(C#N)cnc3cc(-c4cc[nH]c4)sc23)c(Cl)cc1Cl [Example 90, 7-[(2,4-dichloro-5-methoxyphenyl)amino]-2-(1H-pyrrol-3-yl)thieno[3,2-b]pyridine-′6-carbonitrile] | 2700 nM and 2400 nM |  | 2.6 µM and 3.1 µM |  | 

Source: patent publication US7276519B2, “Thieno[3,2-b]pyridine-6-carbonitriles and thieno[2,3-b]pyridine-5-carbonitriles as protein kinase inhibitors” (Wyeth, priority 2002, dated 2007)
